Drawing on US10023564B2, “G protein-coupled receptor kinase 2 inhibitors and methods for use of the same” (THE REGENTS OF THE UNIVERSITY OF MICHIGAN, priority 2014, dated 2018), this text covers IC50 and GRK2 inhibition potency for twelve molecules.

T1 sequence (P25098 whole entry, species assumed): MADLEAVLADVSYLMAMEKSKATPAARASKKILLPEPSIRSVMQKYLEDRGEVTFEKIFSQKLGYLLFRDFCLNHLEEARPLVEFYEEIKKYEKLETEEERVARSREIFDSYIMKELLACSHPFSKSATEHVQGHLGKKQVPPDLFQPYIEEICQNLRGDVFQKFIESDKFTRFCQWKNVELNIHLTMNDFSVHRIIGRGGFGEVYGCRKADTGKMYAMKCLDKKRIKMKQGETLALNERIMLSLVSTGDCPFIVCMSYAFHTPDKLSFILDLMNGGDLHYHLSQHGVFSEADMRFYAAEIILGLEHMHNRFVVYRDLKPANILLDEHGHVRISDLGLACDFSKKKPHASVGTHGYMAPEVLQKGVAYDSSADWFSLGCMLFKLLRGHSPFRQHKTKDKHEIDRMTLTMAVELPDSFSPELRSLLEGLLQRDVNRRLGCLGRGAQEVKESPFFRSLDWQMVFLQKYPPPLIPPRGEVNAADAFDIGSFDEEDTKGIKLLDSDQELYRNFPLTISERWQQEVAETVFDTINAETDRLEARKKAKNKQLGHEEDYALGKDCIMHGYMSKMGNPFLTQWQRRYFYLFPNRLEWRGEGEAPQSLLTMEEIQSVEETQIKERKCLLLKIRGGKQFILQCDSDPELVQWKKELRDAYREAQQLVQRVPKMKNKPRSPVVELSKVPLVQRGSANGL
Chain of ROCK1 (Q13464 whole entry, species assumed): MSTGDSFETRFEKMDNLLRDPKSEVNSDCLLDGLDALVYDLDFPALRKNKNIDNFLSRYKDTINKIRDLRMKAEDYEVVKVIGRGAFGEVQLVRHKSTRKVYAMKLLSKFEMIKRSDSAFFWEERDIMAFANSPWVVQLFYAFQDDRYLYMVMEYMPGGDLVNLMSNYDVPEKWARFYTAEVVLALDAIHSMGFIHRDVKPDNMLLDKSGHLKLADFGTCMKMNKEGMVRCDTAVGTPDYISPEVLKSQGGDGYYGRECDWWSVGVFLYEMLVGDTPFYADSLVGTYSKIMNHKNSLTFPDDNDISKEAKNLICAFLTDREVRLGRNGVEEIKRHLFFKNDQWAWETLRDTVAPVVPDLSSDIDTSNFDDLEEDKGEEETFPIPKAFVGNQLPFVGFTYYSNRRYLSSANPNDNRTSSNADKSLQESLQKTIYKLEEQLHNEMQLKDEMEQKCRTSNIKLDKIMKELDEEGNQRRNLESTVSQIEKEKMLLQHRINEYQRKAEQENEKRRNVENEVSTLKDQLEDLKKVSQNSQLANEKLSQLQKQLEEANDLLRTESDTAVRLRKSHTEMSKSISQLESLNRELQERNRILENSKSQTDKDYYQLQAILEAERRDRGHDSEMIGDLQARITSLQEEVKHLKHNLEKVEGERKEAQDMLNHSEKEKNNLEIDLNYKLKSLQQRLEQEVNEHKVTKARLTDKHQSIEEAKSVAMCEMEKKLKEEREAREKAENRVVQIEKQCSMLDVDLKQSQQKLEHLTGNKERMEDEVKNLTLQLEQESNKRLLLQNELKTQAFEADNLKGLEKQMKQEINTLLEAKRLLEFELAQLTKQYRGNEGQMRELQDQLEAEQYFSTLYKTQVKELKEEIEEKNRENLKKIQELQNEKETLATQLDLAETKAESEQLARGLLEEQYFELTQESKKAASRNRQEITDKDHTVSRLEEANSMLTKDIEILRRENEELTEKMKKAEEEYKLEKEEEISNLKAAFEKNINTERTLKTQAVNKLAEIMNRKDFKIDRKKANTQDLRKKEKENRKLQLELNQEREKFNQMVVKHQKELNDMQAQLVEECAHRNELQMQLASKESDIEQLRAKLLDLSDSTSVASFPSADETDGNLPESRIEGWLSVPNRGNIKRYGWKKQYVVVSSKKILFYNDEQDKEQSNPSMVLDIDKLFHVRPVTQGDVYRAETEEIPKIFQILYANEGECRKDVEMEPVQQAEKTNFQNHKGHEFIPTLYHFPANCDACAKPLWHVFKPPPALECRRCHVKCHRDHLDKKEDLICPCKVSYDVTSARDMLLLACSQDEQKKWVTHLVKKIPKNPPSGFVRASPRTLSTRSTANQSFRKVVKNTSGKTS

The first assay deals with ROCK1 (Homo sapiens (Human), UniProt Q13464). In words: Rho-associated coiled-coil kinase (ROCK) assay, ADP-Glo system. Type of assay: biochemical. The following applies: 0.1 μg ROCK1, 1 μg S6K substrate, 100 μM ATP, 60 min. The protocol:
Rho-associated coiled-coil kinase (ROCK) assays were performed with the ADP-Glo system using 0.1 μg ROCK1 and 1 μg S6K substrate, and 100 μM ATP for 60 min prior to addition of ADP-GLO Reagent, and allowed to incubate for an additional 40 min prior to the addition of the Kinase Detection Reagent and imaging on a PHERASTAR system.
Molecule `CC1=C(C(=O)Nc2ccc3[nH]ncc3c2)C(c2ccc(F)c(C(=O)NCc3nccc4ccccc34)c2)NC(=O)N1` (centres unmarked) [Example E08, 4-(4-fluoro-3-((isoquinolin-1-ylmethyl)carbamoyl)phenyl)-N-(1H-indazol-5-yl)-6-methyl-2-oxo-1,2,3,4-tetrahydropyrimidine-5-carboxamide] registered an IC50 of 17 nM. On the same count and under the same terms, the result for `CC1=C(C(=O)Nc2ccc3[nH]ncc3c2)C(c2ccc(F)c(C(=O)NCc3c(F)cccc3F)c2)NC(=O)N1` (centres unmarked) [Example E02, 4-(3-((2,6-difluorobenzyl)carbamoyl)-4-fluorophenyl)-N-(1H-indazol-5-yl)-6-methyl-2-oxo-1,2,3,4-tetrahydropyrimidine-5-carboxamide] reads 61 nM.

A further assay concerns the target T1, GRK2 (Homo sapiens (Human), UniProt P25098). As to the kind of experiment: GRK2 kinetic assay (phosphorylation of bROS or tubulin, phosphorimaging). The class given is biochemical. The following applies: 50 nM GRK, 5 μM ATP, 5 min reaction. The procedure:
The low salt concentration and DDM were used to maximize GRK activity and disrupt small molecule aggregates from forming, respectively. […] Data was analyzed and inhibition curves were fit via GraphPad Prism.
In the case of `CC1=C(C(=O)Nc2ccc3[nH]ncc3c2)C(c2ccc(F)c(C(=O)NCc3nccc4ccccc34)c2)NC(=O)N1` (centres unmarked) [Example E08, 4-(4-fluoro-3-((isoquinolin-1-ylmethyl)carbamoyl)phenyl)-N-(1H-indazol-5-yl)-6-methyl-2-oxo-1,2,3,4-tetrahydropyrimidine-5-carboxamide], the midpoint of inhibition, the IC50, lay at 2600 nM. The same measure, in the same setting: in the case of `CC1=C(C(=O)Nc2ccc3[nH]ncc3c2)C(c2ccc(F)c(C(=O)NCC(C)N3CCCCCC3)c2)NC(=O)N1` (centres unmarked) [Example E20, 4-(3-((2-(azepan-1-yl)propyl)carbamoyl)-4-fluorophenyl)-N-(1H-indazol-5-yl)-6-methyl-2-oxo-1,2,3,4-tetrahydropyrimidine-5-carboxamide] it was 740 nM; in that of `COC(=O)C1(NC(=O)c2cc(C3NC(=O)NC(C)=C3C(=O)Nc3ccc4[nH]ncc4c3)ccc2F)CCCCC1` (centres unmarked) [Example E23, methyl 1-(5-(5-((1H-indazol-5-yl)carbamoyl)-6-methyl-2-oxo-1,2,3,4-tetrahydropyrimidin-4-yl)-2-fluorobenzamido)cyclohexanecarboxylate], 820 nM. Same read-out and setting: the result for `CC1=C(C(=O)Nc2ccc3[nH]ncc3c2)C(c2ccc(F)c(CCC(=O)NCCc3ccccc3)c2)NC(=O)N1` (centres unmarked) [Example E38, 4-(4-fluoro-3-(3-oxo-3-(phenethylamino)propyl)phenyl)-N-(1H-indazol-5-yl)-6-methyl-2-oxo-1,2,3,4-tetrahydropyrimidine-5-carboxamide] reads 7000 nM; that for `C#CCN(CC(C)C)C(=O)Cc1cc(C2NC(=O)NC(C)=C2C(=O)Nc2ccc3[nH]ncc3c2)ccc1F` (centres unmarked) [Example E36, 4-(4-fluoro-3-(2-(isobutyl(prop-2-yn-1-yl)amino)-2-oxoethyl)phenyl)-N-(1H-indazol-5-yl)-6-methyl-2-oxo-1,2,3,4-tetrahydropyrimidine-5-carboxamide], 2600 nM. The same measure, in the same setting: in the case of `CC1=C(C(=O)Nc2ccc3[nH]ncc3c2)C(c2ccc(F)c(CC(=O)NCC3CCN(C4CC4)CC3)c2)NC(=O)N1` (centres unmarked) [Example E33, 4-(3-(2-(((1-cyclopropylpiperidin-4-yl)methyl)amino)-2-oxoethyl)-4-fluorophenyl)-N-(1H-indazol-5-yl)-6-methyl-2-oxo-1,2,3,4-tetrahydropyrimidine-5-carboxamide] it was 680 nM; in that of `CC1=C(C(=O)Nc2ccc3[nH]ncc3c2)C(c2ccc(F)c(C(=O)NCc3c(F)cccc3F)c2)NC(=O)N1` (centres unmarked) [Example E02, 4-(3-((2,6-difluorobenzyl)carbamoyl)-4-fluorophenyl)-N-(1H-indazol-5-yl)-6-methyl-2-oxo-1,2,3,4-tetrahydropyrimidine-5-carboxamide], 120 nM; in that of `COc1ccccc1C(C)NC(=O)c1cc(C2NC(=O)NC(C)=C2C(=O)Nc2ccc3[nH]ncc3c2)ccc1F` (centres unmarked) [Example E27, 4-(4-fluoro-3-((1-(2-methoxyphenyl)ethyl)carbamoyl)phenyl)-N-(1H-indazol-5-yl)-6-methyl-2-oxo-1,2,3,4-tetrahydropyrimidine-5-carboxamide], 320 nM. Regarding `CC1=C(C(=O)Nc2ccc3[nH]ncc3c2)C(c2ccc(F)c(CC(=O)N(CCO)Cc3ccco3)c2)NC(=O)N1` (centres unmarked) [Example E32, 4-(4-fluoro-3-(2-((furan-2-ylmethyl)(2-hydroxyethyl)amino)-2-oxoethyl)phenyl)-N-(1H-indazol-5-yl)-6-methyl-2-oxo-1,2,3,4-tetrahydropyrimidine-5-carboxamide], the IC50 is 500 nM. Still for that read-out and setting: in the case of `C#CCN(Cc1ccco1)C(=O)Cc1cc(C2NC(=O)NC(C)=C2C(=O)Nc2ccc3[nH]ncc3c2)ccc1F` (centres unmarked) [Example E35, 4-(4-fluoro-3-(2-((furan-2-ylmethyl)(prop-2-yn-1-yl)amino)-2-oxoethyl)phenyl)-N-(1H-indazol-5-yl)-6-methyl-2-oxo-1,2,3,4-tetrahydropyrimidine-5-carboxamide] it was 960 nM; in that of `CC1=C(C(=O)Nc2ccc3[nH]ncc3c2)C(c2ccc(F)c(C(=O)N(C)CC3CCCCO3)c2)NC(=O)N1` (centres unmarked) [Example E21, 4-(4-fluoro-3-(methyl((tetrahydro-2H-pyran-2-yl)methyl)carbamoyl)phenyl)-N-(1H-indazol-5-yl)-6-methyl-2-oxo-1,2,3,4-tetrahydropyrimidine-5-carboxamide], 14600 nM.

The next assay concerns the target T1, GRK2.
Assay: not given
The following applies: literature (Setyawan et al. 1999; Tesmer et al. 2010); cited from earlier work.
For the molecule `O=C(N[C@@H]1CNCCC[C@H]1OC(=O)c1cc(O)c(C(=O)c2c(O)cccc2C(=O)O)c(O)c1)c1ccc(O)cc1` [balanol], the GRK2 inhibition potency entry is given as “low nanomolar range”.
